Test results taken from US20230117034A1, “PYRAZOLOTRIAZINES” (Bayer Aktiengesellschaft, priority 2019, published 2023).

Experiments:
CDK12/CycK = CDK12/CycK (Homo sapiens, UniProt Q9NYV4); experiment: CDK12/CycK high ATP kinase assay (TR-FRET, 2 mM ATP); type: biochemical; details: 2 mM ATP (high ATP); median; read-out: CDK12/CyclinK, 2 mM ATP (high ATP), IC50-[mol/l] (median)
Method in brief: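 Read-out is TR-FRET (Eu-anti-rabbit IgG, anti-phospho-c-Myc Ser62 antibody, streptavidin-XL665) after EDTA stop. Reaction ran 60 min at 22 °C using 1 µM biotin-peptide and high ATP (2 mM) with roughly 0.75 nM recombinant CDK12/CycK, after 15 min compound pre-binding; normalised emission ratios yield IC50.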

[1] = system: CAL-120, human breast adenocarcinoma cells; experiment: Proliferation assay CAL-120 (crystal violet, 4 days); type: cell-based; details: Homo sapiens, CAL-120, 96 h, CAL-120 cells, median, read-out: Prolif-CAL-120, IC50-[mol/l] (median)
Method in brief: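 Crystal violet proliferation read-out after 4 days of compound exposure (0.01-10 µmol/L; solvent 0.1% DMSO). Extinction at 595 nm, set between zero-point (0%) and vehicle (100%), fitted with 4 parameters to give IC50.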

[2] = target: T1, CDK12 (nuclear staining in CAL-120 cells) (Homo sapiens, UniProt Q9NYV4); experiment: CDK12 nuclear protein level: immunofluorescence/high content analysis (CAL-120); type: cell-based; details: for DC50: CAL-120 cells, 24 h, immunofluorescence, 50% reduction of nuclear CDK12 staining intensity, median, read-out: CDK12 degradation IF, DC50- [mol/l] (median); for (IC50 CDK12 high ATP) to (Degradation DC50 CDK12) ratio: ratio of IC50 CDK12 high ATP kinase assay to DC50 CDK12 degradation (IF, CAL-120)
T1 construct: endogenous in cells; host or cells: CAL-120 human breast cancer cells (DSMZ ACC 459)
Method in brief: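 DC50 is the degrader concentration that halves nuclear CDK12 immunofluorescence relative to controls, measured by high-content imaging. CAL-120 cells were exposed to compound for 24 h at 37 °C before PFA fixation, and signal was normalized to DMSO and control wells.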

T1 sequence (Q9NYV4 whole entry): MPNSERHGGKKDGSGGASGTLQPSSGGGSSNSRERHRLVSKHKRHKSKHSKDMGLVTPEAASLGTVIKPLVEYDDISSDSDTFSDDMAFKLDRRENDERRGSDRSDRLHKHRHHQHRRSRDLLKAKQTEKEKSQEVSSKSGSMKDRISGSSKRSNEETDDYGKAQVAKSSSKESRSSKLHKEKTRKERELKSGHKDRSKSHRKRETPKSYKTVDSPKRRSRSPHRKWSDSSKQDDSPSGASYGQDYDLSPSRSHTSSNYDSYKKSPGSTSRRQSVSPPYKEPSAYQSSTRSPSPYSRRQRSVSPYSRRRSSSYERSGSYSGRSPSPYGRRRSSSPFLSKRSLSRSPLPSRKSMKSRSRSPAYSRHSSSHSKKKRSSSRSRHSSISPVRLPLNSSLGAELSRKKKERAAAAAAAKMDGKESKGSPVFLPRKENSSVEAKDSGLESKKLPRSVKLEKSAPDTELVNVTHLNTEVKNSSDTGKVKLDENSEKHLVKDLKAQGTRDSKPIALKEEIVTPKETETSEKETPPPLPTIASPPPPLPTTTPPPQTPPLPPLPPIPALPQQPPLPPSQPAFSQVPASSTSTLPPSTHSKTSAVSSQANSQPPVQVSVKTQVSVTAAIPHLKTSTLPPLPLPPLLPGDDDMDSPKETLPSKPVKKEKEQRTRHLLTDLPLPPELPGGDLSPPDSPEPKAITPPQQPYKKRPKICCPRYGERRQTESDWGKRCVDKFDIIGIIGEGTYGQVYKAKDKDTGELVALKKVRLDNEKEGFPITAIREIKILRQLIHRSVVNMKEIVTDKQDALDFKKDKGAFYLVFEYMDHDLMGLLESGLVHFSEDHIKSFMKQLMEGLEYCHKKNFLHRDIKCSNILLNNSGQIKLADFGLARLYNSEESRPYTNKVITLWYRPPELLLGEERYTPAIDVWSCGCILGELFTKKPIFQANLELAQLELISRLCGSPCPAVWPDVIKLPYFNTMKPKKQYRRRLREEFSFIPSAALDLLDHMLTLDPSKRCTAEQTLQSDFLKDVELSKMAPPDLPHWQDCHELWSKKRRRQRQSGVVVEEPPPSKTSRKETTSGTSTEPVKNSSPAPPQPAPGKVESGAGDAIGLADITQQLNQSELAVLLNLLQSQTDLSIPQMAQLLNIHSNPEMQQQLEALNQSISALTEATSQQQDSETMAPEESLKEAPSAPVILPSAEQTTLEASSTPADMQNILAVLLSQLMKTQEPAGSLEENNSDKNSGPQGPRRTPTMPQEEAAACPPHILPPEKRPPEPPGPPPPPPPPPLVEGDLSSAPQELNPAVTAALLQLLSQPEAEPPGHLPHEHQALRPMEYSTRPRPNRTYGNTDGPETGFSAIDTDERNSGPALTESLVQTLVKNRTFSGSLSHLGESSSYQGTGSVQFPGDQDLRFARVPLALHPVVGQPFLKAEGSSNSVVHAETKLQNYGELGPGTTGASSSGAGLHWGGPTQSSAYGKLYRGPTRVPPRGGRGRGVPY
T1 sequence (O75909 whole entry partner): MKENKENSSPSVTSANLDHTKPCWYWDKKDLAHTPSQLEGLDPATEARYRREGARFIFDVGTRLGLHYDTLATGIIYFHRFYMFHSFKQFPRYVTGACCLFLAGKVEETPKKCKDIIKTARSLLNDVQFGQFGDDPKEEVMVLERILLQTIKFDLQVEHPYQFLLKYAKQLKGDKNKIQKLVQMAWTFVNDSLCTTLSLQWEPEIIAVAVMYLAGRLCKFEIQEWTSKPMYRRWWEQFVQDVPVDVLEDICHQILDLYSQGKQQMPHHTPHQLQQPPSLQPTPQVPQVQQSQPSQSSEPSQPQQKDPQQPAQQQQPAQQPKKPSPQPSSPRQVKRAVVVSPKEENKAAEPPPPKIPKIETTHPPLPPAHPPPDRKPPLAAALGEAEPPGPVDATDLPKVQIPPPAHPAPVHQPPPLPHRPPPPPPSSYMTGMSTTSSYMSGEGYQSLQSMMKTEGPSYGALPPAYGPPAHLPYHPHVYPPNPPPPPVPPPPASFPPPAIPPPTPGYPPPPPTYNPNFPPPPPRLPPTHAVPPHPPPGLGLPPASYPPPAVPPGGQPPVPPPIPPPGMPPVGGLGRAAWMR
Sequence of CDK12/CycK (Q9NYV4 with tags, fused parts or gaps): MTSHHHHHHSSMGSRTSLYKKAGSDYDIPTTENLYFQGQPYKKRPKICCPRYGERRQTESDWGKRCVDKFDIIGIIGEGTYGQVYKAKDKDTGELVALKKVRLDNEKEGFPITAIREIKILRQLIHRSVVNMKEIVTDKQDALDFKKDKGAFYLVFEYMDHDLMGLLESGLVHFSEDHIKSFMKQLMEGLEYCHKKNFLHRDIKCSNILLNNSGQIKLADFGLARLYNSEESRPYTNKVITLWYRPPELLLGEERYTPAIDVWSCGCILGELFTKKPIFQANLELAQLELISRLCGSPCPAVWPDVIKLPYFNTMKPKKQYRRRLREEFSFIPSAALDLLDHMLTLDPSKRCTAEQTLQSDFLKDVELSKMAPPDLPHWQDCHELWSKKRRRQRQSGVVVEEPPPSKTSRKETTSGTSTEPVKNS
Sequence of CDK12/CycK (O75909 1-300 partner limits assumed): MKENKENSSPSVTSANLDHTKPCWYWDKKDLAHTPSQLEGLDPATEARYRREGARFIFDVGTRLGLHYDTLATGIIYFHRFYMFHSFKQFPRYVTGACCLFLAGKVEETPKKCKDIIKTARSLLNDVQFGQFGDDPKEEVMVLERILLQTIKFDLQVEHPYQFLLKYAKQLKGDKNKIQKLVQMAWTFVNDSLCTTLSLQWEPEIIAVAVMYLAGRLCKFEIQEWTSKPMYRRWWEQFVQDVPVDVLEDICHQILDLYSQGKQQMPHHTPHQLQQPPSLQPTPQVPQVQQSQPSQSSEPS

| Structure (SMILES) | IC50 (CDK12/CycK) [nM] | IC50 [1] [nM] | DC50 [2] [nM] | (IC50 CDK12 high ATP) to (Degradation DC50 CDK12) ratio [2] |
| --- | --- | --- | --- | --- |
| Clc1ccccc1-c1cnc(CNc2nc(N3CCOCC3)nc3c(Br)cnn23)[nH]1 [Example 96, 8-bromo-N-{[5-(2-chlorophenyl)-1H-imidazol-2-yl]methyl}-2-(morpholin-4-yl)pyrazolo[1,5-a][1,3,5]triazin-4-amine] | 4650 | 30.1 | 5.73 | 812 |
| CCC1COCCN1c1nc(NCc2nc3ccccc3[nH]2)n2ncc(Br)c2n1 (centres unmarked) [Example 116, N-(1H-benzimidazol-2-ylmethyl)-8-bromo-2-(3-ethylmorpholin-4-yl)pyrazolo[1,5-a][1,3,5]triazin-4-amine] | 6730 | 47 | 4.44 | 1517 |
| Fc1ccc2[nH]c(CNc3nc(N4CCOCC4)nc4c(Br)cnn34)nc2c1 [Example 101, 8-bromo-N-[(5-fluoro-1H-benzimidazol-2-yl)methyl]-2-(morpholin-4-yl)pyrazolo[1,5-a][1,3,5]triazin-4-amine] | 2250 | 4.1 | 0.584 | 3856 |
| C[C@@H]1CN(c2nc(NCc3nc4ccccc4[nH]3)n3ncc(Br)c3n2)C[C@H](C)N1 [Example 142, N-(1H-benzimidazol-2-ylmethyl)-8-bromo-2-[(3R,5S)-3,5-dimethylpiperazin-1-yl]pyrazolo[1,5-a][1,3,5]triazin-4-amine] | 10800 | 11.3 | 1.62 | 6679 |
| FC(F)(F)CN1CCN(c2nc(NCc3nc4ccccc4[nH]3)n3ncc(Br)c3n2)CC1 [Example 139, N-[(1H-benzimidazol-2-yl)methyl]-8-bromo-2-[4-(2,2,2-trifluoroethyl)piperazin-1-yl]pyrazolo[1,5-a][1,3,5]triazin-4-amine] | 15300 | 446 | 110 | 140 |
| Brc1cnn2c(NCc3nc4ccccc4[nH]3)nc(N3CCOCC3C3CC3)nc12 (centres unmarked) [Example 117, N-(1H-benzimidazol-2-ylmethyl)-8-bromo-2-(3-cyclopropylmorpholin-4-yl)pyrazolo[1,5-a][1,3,5]triazin-4-amine] | 4820 | 23.1 | 3.77 | 1278 |
| C[C@H]1CN(c2nc(NCc3nnc(-c4ccccc4)[nH]3)n3ncc(Br)c3n2)CCN1C.O=CO [Example 122, 8-bromo-2-[(3S)-3,4-dimethylpiperazin-1-yl]-N-[(5-phenyl-4H-1,2,4-triazol-3-yl)methyl]pyrazolo[1,5-a][1,3,5]triazin-4-amine formate] | > 20000 | 18.5 | 2.47 | >8081 |
| CCN1CCN(c2nc(NCc3nc4ccccc4[nH]3)n3ncc(Br)c3n2)CC1 [Example 137, N-[(1H-benzimidazol-2-yl)methyl]-8-bromo-2-(4-ethylpiperazin-1-yl)pyrazolo[1,5-a][1,3,5]triazin-4-amine] | 13000 | 110 | 10.8 | 1196 |
| CN1CCN(c2nc(NCc3nc4ccccc4[nH]3)n3ncc(Br)c3n2)CC1=O [Example 131, 4-(4-{[(1H-benzimidazol-2-yl)methyl]amino}-8-bromopyrazolo[1,5-a][1,3,5]triazin-2-yl)-1-methylpiperazin-2-one] | 11100 | 595 | 122 | 91 |
| COc1ccc2[nH]c(CNc3nc(N4CCN(C)CC4)nc4c(Br)cnn34)nc2c1 [Example 161, 8-bromo-N-[(5-methoxy-1H-benzimidazol-2-yl)methyl]-2-(4-methylpiperazin-1-yl)pyrazolo[1,5-a][1,3,5]triazin-4-amine] | 9610 | 3.3 | 0.856 | 11233 |
| c1ccc2[nH]c(CNc3nc(N4CCOCC4)nc4c(-c5ccncc5)cnn34)nc2c1 [Example 111, N-[(1H-benzimidazol-2-yl)methyl]-2-(morpholin-4-yl)-8-(pyridin-4-yl)pyrazolo[1,5-a][1,3,5]triazin-4-amine hydrogen chloride (1/1)] | > 1630 | 8.96 | 1.22 | >1337 |
| CN1CCN(c2nc(NCc3nc4cc(Cl)ccc4[nH]3)n3ncc(Br)c3n2)CC1 [Example 163, 8-bromo-N-[(5-chloro-1H-benzimidazol-2-yl)methyl]-2-(4-methylpiperazin-1-yl)pyrazolo[1,5-a][1,3,5]triazin-4-amine] | > 5710 | 1.05 | 0.334 | >17106 |
| Cc1ccc2[nH]c(CNc3nc(N4CCOCC4)nc4c(Br)cnn34)nc2c1 [Example 157, 8-bromo-N-[(5-methyl-1H-benzimidazol-2-yl)methyl]-2-(morpholin-4-yl)pyrazolo[1,5-a][1,3,5]triazin-4-amine] | 676 | 1.78 | 0.62 | 1089 |
| CN1CCN(c2nc(NCc3nc4ccccc4[nH]3)n3ncc(Br)c3n2)C(CO)C1 (centres unmarked) [Example 155, [1-[4-(1H-benzimidazol-2-ylmethylamino)-8-bromo-pyrazolo[1,5-a][1,3,5]triazin-2-yl]-4-methyl-piperazin-2-yl]methanol] | 3740 | 75.3 | 47.2 | 79 |
| C[C@@H]1CN(c2nc(NCc3nc4ccccc4[nH]3)n3ncc(Br)c3n2)CCN1C [Example 135, N-[(1H-benzimidazol-2-yl)methyl]-8-bromo-2-[(3R)-3,4-dimethylpiperazin-1-yl]pyrazolo[1,5-a][1,3,5]triazin-4-amine] | 14500 | 41.7 | 3.69 | 3939 |
| CN1CCN(c2nc(NCc3nc4c(F)c(F)ccc4[nH]3)n3ncc(Br)c3n2)CC1 [Example 133, 8-bromo-N-[(4,5-difluoro-1H-benzimidazol-2-yl)methyl]-2-(4-methylpiperazin-1-yl)pyrazolo[1,5-a][1,3,5]triazin-4-amine] | 7010 | 4.41 | 0.846 | 8279 |
| CN1CCN(c2nc(NCc3nc4cc(F)ccc4[nH]3)n3ncc(C4CC4)c3n2)CC1 [Example 164, 8-cyclopropyl-N-[(5-fluoro-1H-benzimidazol-2-yl)methyl]-2-(4-methylpiperazin-1-yl)pyrazolo[1,5-a][1,3,5]triazin-4-amine] | > 20000 | 4.13 | 0.99 | >20194 |
